Measured values reported in patent publication US10550153B2, “Peptide or pharmaceutically acceptable salt thereof, or prodrug thereof” (Tokyo University of Pharmacy & Life Sciences, priority 2017, dated 2020).
“Also recorded” adds a separate entry of the source. Values belong to the molecule of their own block, whether it stands above or below them. Where a SMILES comes first, the peptide text is derived from it. [ ]: non-standard residue; d: D form. The star is where a group is joined. Propanoyl(3-cHex) = O=C(CCC1CCCCC1)*; Orn = NCCC[C@H](N)C(=O)O; Dab = NCC[C@H](N)C(=O)O; Dap = NC[C@H](N)C(=O)O

Legend:
[1] = Stability in phosphate buffer solution (HPLC recovery rate); format: physicochemical
Protocol: Peptide solution was prepared (1 mL) by using a 100 mM phosphate buffer solution (pH 7.4) so as to have the final concentration of 1 mM, and then the peptide solution was incubated for arbitrary time period (1 to 72 hours) in a water bath at 37° C. After the arbitrary time period, sampling was carried out and 20 μL of injection into high performance liquid chromatography (HPLC) (column: COSMOSIL (registered trademark) Cholester Packed Column 4.6 mmI.D.×150 mm; gradient: % B 25-35, 30 min [A: H2O-0.1% (v/v) TFA; B: MeCN]; flow rate: 1.0 mL/min; measurement wavelength: 220 nm) was made. Then, by taking the obtained area value as an indicator, the stability was analyzed from the recovery rate (%) of the compound.

hNMUR2 = molecular target: T1, hNMUR2 (Homo sapiens, UniProt Q9GZQ4); assay: In vitro agonist activity for human neuromedin U receptor (intracellular calcium, Fluo-4, CHO cells stably expressing the receptor); format: cell-based; details: at a concentration of 100 nM; versus hNMUR1; selective = relative agonist activity for NMUR1 18% or less at 1000 nM and for NMUR2 48% or more at 100 nM
T1 construct: expressed in transfected cells
T1 sequence (Q9GZQ4 whole entry): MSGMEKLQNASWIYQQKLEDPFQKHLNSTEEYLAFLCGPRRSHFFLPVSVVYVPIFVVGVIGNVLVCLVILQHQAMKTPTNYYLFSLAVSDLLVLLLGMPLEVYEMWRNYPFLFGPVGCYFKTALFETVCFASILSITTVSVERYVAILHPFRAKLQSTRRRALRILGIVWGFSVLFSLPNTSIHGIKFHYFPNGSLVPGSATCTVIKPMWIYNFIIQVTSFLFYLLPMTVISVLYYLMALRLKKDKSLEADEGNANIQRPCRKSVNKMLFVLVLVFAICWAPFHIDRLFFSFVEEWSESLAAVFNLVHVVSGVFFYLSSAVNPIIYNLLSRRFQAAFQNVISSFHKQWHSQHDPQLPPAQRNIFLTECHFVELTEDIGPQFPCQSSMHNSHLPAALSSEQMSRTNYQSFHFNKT
Protocol: For CPN-219 which has been synthesized in Synthesis Example 1, evaluation of the agonist activity for type 1 and type 2 human neuromedin U receptor (hNMUR1 and hNMUR2) was carried out according to the following method.
CHO cells derived from Chinese hamster ovary which stably express hNMUR1 or hNMUR2 were cultured in a 5% (v/v) CO2 incubator at 37° C. by using MEM alpha (GIBCO (registered trademark), Thermo Fisher Scientific Inc.) medium containing 1 mg/mL G418 (NACALAI TESQUE, INC.), 10% (v/v) fetal bovine serum (FCS) and nucleosides (adenosine 10 mg/L, cytidine 10 mg/L, guanosine 10 mg/L, uridine 10 mg/L, 2′-deoxyadenosine 10 mg/L, 2′-deoxycytidine hydrochloride 11 mg/L, 2′-deoxyguanosine 10 mg/L, thymidine 10 mg/L).
The CHO cells were sown on a 96 well black-walled plate with clear bottom (Iwaki: AGC TECHNO GLASS CO., LTD.) at 2.0×10^4 cells per well (150 μL DMEM+10% (v/v) FBS), and then cultured for 18 hours.
(§1) After the culture, 100 μL of Fluo-4 AM (Promega Corporation) solution as a fluorescent indicator of intracellular calcium concentration was added to each well, in which the solution has been prepared such that it has the final concentration of 4 μM in assay buffer (HBSS, 10 mM HEPES, 2.5 mM probenecid, 1% (v/v) FCS: pH 7.4). After culture for 40 minutes at 37° C., the cells were washed 4 times with the assay buffer and set in a fluorometric imaging plate reader (Molecular Devices, LLC.).
The peptide as a test sample was dissolved by using dimethyl sulfoxide (DMSO) such that the stock solution is present at 20 mM, and then it was stored at 4° C. One hour before addition to the cells, by using an assay buffer added with 0.05% (v/v) bovine serum albumin (BSA) and […] Triton (registered trademark) X-100, preparation to arbitrary final concentration was made (10^−12 to 10^−6 M), and the fluorescence based on the activity of recruiting intracellular calcium by the peptide (i.e., agonist activity) was measured by using a fluorometric imaging plate reader.

[2] = Stability in rat plasma (LC/MS); format: in vitro ADME; details: 37° C.
Protocol: Peptide solution was added to rat plasma such that the final peptide concentration is 50 μg/mL, and then incubated for arbitrary time period (0.5 to 6 hours) at 37° C. After the arbitrary time period, sampling was carried out and high performance liquid chromatography mass spectrometry (LC/MS) was performed under the following conditions followed by stability analysis.
LC/MS System: LC-MS2020 (SHIMADZU CORPORATION)
Column: TSKgel ODS-100V (Tosoh Corporation, 3.0 μm, 2.0 mm×75 mm)
Mobile layer: 0.1% trifluoroacetic acid (pH 2.5):acetonitrile=2:1
Column temperature: 40° C.
Detection: ESI^+, m/z=425.

[3] = Brain delivery upon intranasal administration to a mouse; format: in vivo; details: ddY male mouse, 200 μg/5 μL intranasal, after 5 minutes; compared to CPN-116
Protocol: Peptide solution (200 μg/5 μL) was administered to the nasal cavity of a ddY male mouse. After 5 minutes, the animal was sacrificed and the brain tissues were collected. According to the LC/MS analysis, concentration of the peptide in plasma and brain was analyzed, and the ratio of concentration in brain compared to concentration in plasma was analyzed. The LC/MS analysis was carried out under the same conditions as above.

ddy male mouse [4] = assay: Suppression of increase in prolactin concentration in blood under restraint stress; format: in vivo; details: 200 μg/5 μL intranasal, restraint stress 20 minutes, ELISA
Protocol: Peptide solution (200 μg/5 μL) or physiological saline (5 μL) was administered to the nasal cavity of a ddY male mouse. After 20 minutes, restraint stress (i.e., addition to the inside of a tube) was applied for 20 minutes and blood was taken by cutting off the animal head. Then, the PLT concentration in plasma was analyzed by using Mouse Prolactin DuoSet ELISA (R&D systems).
Furthermore, for a ddY male mouse which has not been administered with the peptide solution (200 μg/5 μL) or physiological saline (5 μL), and also not applied with any stress, the PLT concentration in plasma was analyzed in the same manner as above.

ddy male mouse [5] = assay: Fluctuation in corticosterone concentration in blood; format: in vivo; details: 200 μg/5 μL intranasal, after 5 minutes
Protocol: Peptide solution (200 μg/5 μL) or physiological saline (5 μL) was administered, either intranasally or peritoneally, to a ddY male mouse. After 5 minutes, blood was taken from the caval vein, and corticosterone concentration in plasma was analyzed according to the LC/MS analysis. Furthermore, as a control, without administering the peptide solution (200 μg/5 μL) or physiological saline (5 μL), blood was taken […] from the caval vein, and corticosterone concentration in plasma was analyzed according to the LC/MS analysis. The LC/MS analysis was carried out under the same conditions as above.

ddy male mouse [6] = assay: Suppression of body weight gain and food intake upon intranasal administration to a mouse; format: in vivo; details: 64 μg or 213 μg once intranasally, Day 1 to 5, versus physiological saline
Protocol: CPN-219, each dissolved at 64 μg or 213 μg in physiological saline (5 μL), was administered once to the nasal cavity of a ddy male mouse under anesthetization. As a control, physiological saline (5 μL) was administered once to the nasal cavity. For each administration group, the body weight of a mouse and food intake amount were measured immediately before the administration, each of Day 1 to 5 from immediately after the administration.
The body weight of a mouse was 29.0±0.83 g for the group with intranasal administration of 64 μg, or 27.7±1.29 g for the group with intranasal administration of 213 μg.

[7] = Pharmacokinetics of peptides in rat after administration via jugular vein; format: in vivo; details: Wistar rat, 500 μg/200 μL via jugular vein, 1 to 240 minutes; compared to CPN-116
Protocol: The peptide solution (500 μg/200 μL) was administered via jugular vein of a Wistar rat. After arbitrary time period (1 to 240 minutes), blood was taken from the femoral artery which has been subjected to cannulation in advance. According to the LC/MS analysis, pharmacokinetics of the peptide was analyzed. The LC/MS analysis was carried out under the same conditions as above.

mNMUR2 = molecular target: T2, mNMUR2 (Mus musculus, UniProt Q8BZ39); assay: In vitro agonist activity for mouse neuromedin U receptor (intracellular calcium, Fluo-4, transfected HEK293 cells); format: cell-based; details: at a concentration of 100 nM, versus mNMUR1
T2 construct: expressed in transfected cells; host or cells: HEK293 cells (transient transfection with FuGENE6)
T2 sequence (Q8BZ39 whole entry): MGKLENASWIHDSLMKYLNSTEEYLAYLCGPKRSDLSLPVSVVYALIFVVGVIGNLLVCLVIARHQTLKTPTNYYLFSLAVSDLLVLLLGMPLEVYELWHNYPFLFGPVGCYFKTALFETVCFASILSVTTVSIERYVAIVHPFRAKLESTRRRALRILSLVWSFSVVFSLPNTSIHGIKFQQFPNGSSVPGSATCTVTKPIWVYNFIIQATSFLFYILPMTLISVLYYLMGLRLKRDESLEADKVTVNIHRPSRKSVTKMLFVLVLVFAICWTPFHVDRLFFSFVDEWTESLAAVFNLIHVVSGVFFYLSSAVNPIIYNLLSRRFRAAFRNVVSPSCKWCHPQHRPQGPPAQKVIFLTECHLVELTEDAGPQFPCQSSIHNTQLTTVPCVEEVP
Protocol: For CPN-219 which has been synthesized in Synthesis Example 1, evaluation of the agonist activity for type 1 and type 2 mouse neuromedin U receptor (mNMUR1 and mNMUR2) was carried out according to the following method.
HEK293 cells derived from human embryonic kidney were cultured in a 5% (v/v) CO2 incubator at 37° C. by using DMEM-high glucose (GIBCO (registered trademark), Thermo Fisher Scientific Inc.) medium containing 10% (v/v) FCS.
Cells were sown on a 100 mm dish at 5.0×10^5 cells (10 mL DMEM+10% FBS), and then cultured for 18 hours. After the culture, by using FuGENE6 (Promega Corporation), the cultured cells were transfected with an expression plasmid which encodes mNMUR1 or mNMUR2 (2.5 μg). The cells were cultured for 18 hours. […]
as §1, with “On the next” for “After the culture,”, “On the next day, 100 μL” for “After the culture, 100 μL”, “probenecid, 1% FCS: pH” for “probenecid, 1% (v/v) FCS: pH”, “Devices, LLC.). […]” for “Devices, LLC.).”

[8] = 100 mM phosphate buffer solution pH 7.4, 37° C., after 48 hours
[9] = 2 hours, read-out: recovery rate in rat plasma after 2 hours

Molecule: 3-Cyclohexylpropionyl-Leu-Leu-Dpr-Pro-Arg-Asn-NH2 ({Propanoyl(3-cHex)}-LL[Dap]PRN-NH2) [CPN-220]
converted to CPN-116 in phosphate buffer solution [1, 8]: ≥ 25%
hNMUR2 selective agonist activity (hNMUR2): did not exhibit the hNMUR2 selective agonist activity; also recorded: does not show the hNMUR2 selective agonist activity

Molecule: 3-Cyclohexylpropionyl-Leu-Leu-Orn-Pro-Arg-Asn-NH2 ({Propanoyl(3-cHex)}-LL[Orn]PRN-NH2; SMILES CC(C)C[C@H](NC(=O)CCC1CCCCC1)C(=O)N[C@@H](CC(C)C)C(=O)N[C@@H](CCCN)C(=O)N1CCC[C@H]1C(=O)N[C@@H](CCCNC(=N)N)C(=O)N[C@@H](CC(N)=O)C(N)=O) [CPN-221]
hNMUR2 selective agonist activity (hNMUR2): exhibited the hNMUR2 selective agonist activity

converted to CPN-220 in phosphate buffer solution [1, 8]: ≥ 70%
chemical stability (in words) ([1]; 100 mM phosphate buffer solution, conclusion from Test Examples 11 and 12): chemically unstable
recovery at 2 h, 50 μg/mL [2, 9]: ≤ 3%
Molecule: CC(C)C[C@H](NC(=O)CCC1CCCCC1)C(=O)N[C@@H](CC(C)C)C(=O)N[C@@H](CN)C(=O)N1CCC[C@H]1C(=O)N[C@@H](CCCNC(=N)N)C(=O)N[C@@H](CC(N)=O)C(N)=O [CPN-116, 3-Cyclohexylpropionyl-Leu-Leu-Dpr-Pro-Arg-Asn-NH2] ({Propanoyl(3-cHex)}-LL[Dap]PRN-NH2)

recovery at 2 hours, 50 μg/mL [2, 9]: ≥ 80%
recovery at 6 hours, 50 μg/mL ([2]; 6 hours, read-out: recovery rate in rat plasma after 6 hours): ≥ 60%
Molecule: CC(C)C[C@H](NC(=O)CCC1CCCCC1)C(=O)N[C@@H](CC(C)C)C(=O)N[C@@H](CCN)C(=O)N1CCC[C@H]1C(=O)N[C@@H](CCCNC(=N)N)C(=O)N[C@@H](CC(N)=O)C(N)=O [CPN-219, 3-Cyclohexylpropionyl-Leu-Leu-Dbu-Pro-Arg-Asn-NH2] ({Propanoyl(3-cHex)}-LL[Dab]PRN-NH2)
brain delivery (ratio of concentration in brain to concentration in plasma; transfer to olfactory bulb) [3]: more favorable transfer to an olfactory bulb
prolactin secretion (PLT concentration in plasma) (ddy male mouse [4]): suppresses the prolactin secretion
corticosterone concentration in blood (ddy male mouse [5]): significantly increased the corticosterone concentration in blood
body weight gain of a mouse (ddy male mouse [6]): significantly suppressed the body weight gain
food intake of a mouse (ddy male mouse [6]): significantly suppressed
hNMUR2 selective agonist activity (hNMUR2): exhibited the NMUR2 selective agonist activity
pharmacokinetics in rat blood [7]: more favorable pharmacokinetics in rat blood
mNMUR2 selective agonist activity (mNMUR2): exhibited the mNMUR2 selective agonist activity
